PubChem BioAssay (NCI)
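Grown in 96-well plates, cells were treated for 48 hours with each compound at five concentrations. Insufficient inhibition: endpoint recorded as highest concentration tested. TGI: concentration producing complete growth inhibition.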

Legend:
Experiment in all cases: inhibition of tumour cell growth, NCI panel, 48 h
SNB-19 CNS = system: SNB-19 CNS
OVCAR-3 ovarian = system: OVCAR-3 ovarian
OVCAR-5 ovarian = system: OVCAR-5 ovarian
HOP-62 NSCLC = system: HOP-62 NSCLC
HCT-15 colon = system: HCT-15 colon
ACHN renal = system: ACHN renal
UO-31 renal = system: UO-31 renal
MDA-MB-231 breast = system: MDA-MB-231 breast
SF-539 CNS = system: SF-539 CNS
RPMI-8226 leukemia = system: RPMI-8226 leukemia
A549 NSCLC = system: A549 NSCLC
MOLT-4 leukemia = system: MOLT-4 leukemia
K-562 leukemia = system: K-562 leukemia
KM12 colon = system: KM12 colon
HCC-2998 colon = system: HCC-2998 colon
DU-145 prostate = system: DU-145 prostate
HL-60(TB) leukemia = system: HL-60(TB) leukemia
PC-3 prostate = system: PC-3 prostate
EKVX NSCLC = system: EKVX NSCLC
MCF7 breast = system: MCF7 breast
NCI-H460 lung = system: NCI-H460 lung
OVCAR-8 ovarian = system: OVCAR-8 ovarian
HT29 colon = system: HT29 colon
CCRF-CEM leukemia = system: CCRF-CEM leukemia
NCI-H522 lung = system: NCI-H522 lung
IGROV1 ovarian = system: IGROV1 ovarian
M14 melanoma = system: M14 melanoma
SK-MEL-2 melanoma = system: SK-MEL-2 melanoma
SR leukemia = system: SR leukemia
SK-MEL-28 melanoma = system: SK-MEL-28 melanoma
UACC-62 melanoma = system: UACC-62 melanoma
A498 renal = system: A498 renal
SW-620 colon = system: SW-620 colon
RXF 393 renal = system: RXF 393 renal
NCI-H226 lung = system: NCI-H226 lung
786-0 renal = system: 786-0 renal
HOP-92 NSCLC = system: HOP-92 NSCLC
NCI/ADR-RES ovarian = system: NCI/ADR-RES ovarian
HCT-116 colon = system: HCT-116 colon
NCI-H23 lung = system: NCI-H23 lung
MDA-MB-435 = system: MDA-MB-435
COLO 205 colon = system: COLO 205 colon
CAKI-1 renal = system: CAKI-1 renal
SK-OV-3 ovarian = system: SK-OV-3 ovarian
SF-295 CNS = system: SF-295 CNS
TK-10 renal = system: TK-10 renal
U251 CNS = system: U251 CNS
SNB-75 CNS = system: SNB-75 CNS
BT-549 breast = system: BT-549 breast
OVCAR-4 ovarian = system: OVCAR-4 ovarian
T-47D breast = system: T-47D breast
MALME-3M melanoma = system: MALME-3M melanoma
SF-268 CNS = system: SF-268 CNS

## COc1ccc2[nH]c3c(C)c4ccnc(NCCCN(C)CCCNc5ccc([N+](=O)[O-])c6[nH]c7ccccc7c(=O)c56)c4c(C)c3c2c1
SNB-19 CNS
  TGI: 1.42 µM
OVCAR-3 ovarian
  TGI: 1.2 µM
OVCAR-5 ovarian
  TGI: 1.26 µM
HOP-62 NSCLC
  TGI: 1.06 µM
HCT-15 colon
  TGI: 0.68 µM
ACHN renal
  TGI: 0.648 µM
UO-31 renal
  TGI: 2.21 µM
MDA-MB-231 breast
  TGI: 1.81 µM
SF-539 CNS
  TGI: 0.726 µM
RPMI-8226 leukemia
  TGI: 50 µM
A549 NSCLC
  TGI: 0.0783 µM
MOLT-4 leukemia
  TGI: 0.989 µM
K-562 leukemia
  TGI: 4.41 µM
KM12 colon
  TGI: 1.43 µM
HCC-2998 colon
  TGI: 0.568 µM
DU-145 prostate
  TGI: 1.27 µM
HL-60(TB) leukemia
  TGI: 50 µM
PC-3 prostate
  TGI: 1.21 µM
EKVX NSCLC
  TGI: 0.964 µM
MCF7 breast
  TGI: 0.0954 µM
NCI-H460 lung
  TGI: 0.0678 µM
OVCAR-8 ovarian
  TGI: 1.11 µM
HT29 colon
  TGI: 0.107 µM
CCRF-CEM leukemia
  TGI: 4.12 µM
NCI-H522 lung
  TGI: 0.822 µM
IGROV1 ovarian
  TGI: 0.755 µM
M14 melanoma
  TGI: 0.988 µM
SK-MEL-2 melanoma
  TGI: 1.46 µM

## N#Cc1c(-c2ccc(Cl)cc2)cc(-c2ccc(Nc3ccnc4cc(Cl)ccc34)cc2)nc1N
SR leukemia
  TGI: > 100 µM
SK-MEL-28 melanoma
  TGI: > 100 µM
UACC-62 melanoma
  TGI: > 100 µM
A498 renal
  TGI: > 100 µM
SNB-19 CNS
  TGI: > 100 µM
OVCAR-3 ovarian
  TGI: > 100 µM
SW-620 colon
  TGI: > 100 µM
RXF 393 renal
  TGI: > 100 µM
NCI-H226 lung
  TGI: > 100 µM
OVCAR-5 ovarian
  TGI: > 100 µM
HOP-62 NSCLC
  TGI: > 100 µM
HCT-15 colon
  TGI: > 100 µM
ACHN renal
  TGI: > 100 µM
786-0 renal
  TGI: > 100 µM
UO-31 renal
  TGI: > 100 µM
MDA-MB-231 breast
  TGI: > 100 µM
SF-539 CNS
  TGI: > 100 µM
HOP-92 NSCLC
  TGI: > 100 µM
RPMI-8226 leukemia
  TGI: > 100 µM
NCI/ADR-RES ovarian
  TGI: > 100 µM
A549 NSCLC
  TGI: > 100 µM
K-562 leukemia
  TGI: > 100 µM
KM12 colon
  TGI: > 100 µM
HCT-116 colon
  TGI: > 100 µM
HCC-2998 colon
  TGI: > 100 µM
DU-145 prostate
  TGI: > 100 µM
NCI-H23 lung
  TGI: > 100 µM
MDA-MB-435
  TGI: > 100 µM
COLO 205 colon
  TGI: > 100 µM
HL-60(TB) leukemia
  TGI: > 100 µM
CAKI-1 renal
  TGI: > 100 µM
PC-3 prostate
  TGI: > 100 µM
EKVX NSCLC
  TGI: > 100 µM
SK-OV-3 ovarian
  TGI: > 100 µM
SF-295 CNS
  TGI: > 100 µM
TK-10 renal
  TGI: > 100 µM
NCI-H460 lung
  TGI: > 100 µM
OVCAR-8 ovarian
  TGI: > 100 µM
U251 CNS
  TGI: > 100 µM
SNB-75 CNS
  TGI: > 100 µM
BT-549 breast
  TGI: > 100 µM
OVCAR-4 ovarian
  TGI: > 100 µM
T-47D breast
  TGI: > 100 µM
NCI-H522 lung
  TGI: > 100 µM
MALME-3M melanoma
  TGI: > 100 µM
SF-268 CNS
  TGI: > 100 µM
IGROV1 ovarian
  TGI: > 100 µM
M14 melanoma
  TGI: > 100 µM
SK-MEL-2 melanoma
  TGI: > 100 µM
